# In patent US10695319B2, “Glucose conjugates of triptolide, analogs and uses thereof” (The Johns Hopkins University, priority 2016, dated 2020):
# Columns and labels:
# [1] = Preliminary experiments on tolerable treatment dose; type: in vivo; conditions: mice
# Description: (§1) The in vivo antitumor activity of the glucose-triptolide conjugate G4 was determined using an established metastatic prostate cancer model (Reference 1). In this model, the luciferase-expressing prostate cancer line PC3/ML was injected into NOD/SCID/IL2rγ^null (NSG) mice through the tail vein. The metastasis of the injected prostate cancer cells into liver, kidney, lung and bone can be monitored in live animals by bioluminescent imaging (BLI). It was shown that this is a reliable model with reproducible liver metastasis and all animals succumb by Week 7 after injection of cells (or Week 4 after initiation of treatments). […] Three weeks after cell injection, each compound was given once daily by IP at those doses for a total of 4 weeks. The surviving animals were continuously monitored upon termination of compound administration.
# [2] = system: luciferase-expressing prostate cancer line PC3/ML; experiment: Metastatic prostate cancer model, bioluminescent imaging; type: in vivo, NOD/SCID/IL2rγ^null (NSG) mice; conditions: triptolide 0.2 mg/kg, G4 1 mg/kg
# Description: FIG. 3. Effects of triptolide and glucose-triptolide conjugate G4 in a metastatic mouse prostate cancer model. The injected prostate cancer cells expressed luciferase, which was detected by imaging of live animals.
# as §1
smiles,measurement,setting,value
CC(C)[C@]12O[C@H]1[C@@H]1O[C@]13[C@]1(O[C@H]1C[C@H]1C4=C(CC[C@@]13C)C(=O)OC4)[C@@H]2O [triptolide],tolerable treatment dose,[1],0.2 mg/kg
same,tumor after termination of compound administration,"[2]; after 4 weeks of once daily IP, till end of experiment",tumors immediately returned
same,tumor cells at the end of Week 4 of treatment,"[2]; once daily IP for 4 weeks, BLI",undetectable tumor cells
